In EP2698385A1, “Detection of synthetic cannabinoids” (priority 2012, dated 2014):

Key:
Assay type in all cases: binding, sheep
Antibody to Immunogen I = conditions: Cross-reactants at 100 ng/ml; Antibody to Immunogen I
Procedure: (§1) An aqueous solution of each immunogen was formulated with Freund's Complete Adjuvant (FCA) to form an emulsion consisting of 2mg/ml* immunogen in 50% (v/v) FCA. Three sheep were immunised with this emulsion (1° immunisation), 0.25ml being intramuscularly injected at each of four sites in the flank of each animal. Subsequent immunizations (boosts) contained 1mg/ml* immunogen. All boosts were emulsified in 50% (v/v) Freund's Incomplete Adjuvant (FIA) and were administered in the same manner as the 1° immunisation, at monthly intervals. Blood sampling took place 7 to 14 days after each boost. *The general procedure for immunogen administration is outlined above, however, it was necessary to deviate from this protocol in some cases, due to reduced immunogen concentrations (Immunogens II, IV, VII and VIII) and/or amount available (Immunogen VIII). Any deviations from the protocol described are outlined in Table 1A below and highlighted in bold. Table 1A: Amount and volume of immunogens administered for primary and subsequent boosts
(§2) The wells of an enhanced binding 96 well polystyrene microtiter plate were coated with IgG fraction of antiserum raised to Immunogen I or II, diluted in 10mM Tris, pH8.5 (125µl/well). The appropriate antibody coating dilution was determined using standard ELISA checkerboard techniques. The plate was incubated overnight at 4°C, washed 4 times over 10 minutes with Tris buffered saline containing Tween 20 (TBST) and tapped dry. Standard solutions (JWH-018 for Immunogens I and II) were applied at 0, 0.625, 1.25, 2.5, 5, 10, 20 and 40ng/ml and 50µl of each was added to the appropriate wells. 75µl of conjugate (appropriate hapten-HRP) diluted in Tris buffer (pH 7.2) containing EDTA, D-mannitol, sucrose, thimerosal and BSA, was added to each of the wells. The appropriate dilution of conjugate was also determined using standard ELISA checkerboard techniques. The plate was incubated at 25°C for 1 hour. Excess unbound conjugate was removed by washing 6 times over a 10 minute period with TBST. 125µl of tetramethylbenzidine (TMB) substrate solution was added to each well of the plate that was then incubated for 20 minutes in the dark at room temperature. The reaction was terminated by addition of 125µl 0.2M H2SO4 to each well. The absorbance was then measured at 450nm using a microtiter plate reader. The data are inputted to a computer program called 'KC Junior'. It is a 4 parameter fit curve and allow the calculatation of concentrations between the standard runs. This program is used to calculate the IC50s by dividing the 0ng/ml OD value by 2 and obtaining the concentration value from the curve for this OD.
In a similar manner to that described above, the wells of a 96-well microtiter plate were coated with the IgG fraction of the antiserum raised to Immunogens I or II. Standard solutions (JWH-018 for Immunogen I and II) were applied at 0, 0.625, 1.25, 2.5, 5, 10, 20 and 40ng/ml and conjugate was employed as detection reagent.
(§3) The data set our in Tables 3 and 4 are generated using antibodies raised against the indicated Immunogens in a competitive binding assay with the indicated tracers, using the indicated standards: Table 2
(§4) A450 = absorbance at 450nm B = absorbance at 450nm at xng/ml standard concentration B0 = absorbance at 450nm at 0ng/ml standard concentration IC50 = standard concentration which produces 50% B/B0
(§5) In order to determine the specificity of the competitive ELISAs, standard solutions of a range of structurally similar synthetic cannabinoids and their metabolites were prepared in TBST. Using the calibration curves generated and employing a single level of cross reactants, these were used to determine the cross-reactivity of each immunoassay with these substances. […]

[1] = tested on: Antibody to Immunogen VII; conditions: Cross-reactants at 100 ng/ml; Antibody to Immunogen VII
Procedure: as §1, §2
(§6) In a similar manner to that described above, the wells of a 96-well microtiter plate were coated with the IgG fraction of the antiserum raised to Immunogens IV, VII or VIII. Standard solutions (JWH-018 for Immunogens IV and VIII, JWH-015 for Immunogen VII) were prepared in TBST at 0, 1.25, 2.5, 5, 10, 20, 40 and 80ng/ml and conjugate was employed as detection reagent.
as §3, §4, §5

Antibody to Immunogen IV = conditions: Cross-reactants at 100 ng/ml; Antibody to Immunogen IV
Procedure: as §1, §2, §6, §3, §4, §5

[2] = tested on: Antibody to Immunogen VIII; conditions: Cross-reactants at 100 ng/ml; Antibody to Immunogen VIII
Procedure: as §1, §2, §6, §3, §4, §5

Molecule | %B/B0 (Antibody to Immunogen I) | %B/B0 [1] | %B/B0 (Antibody to Immunogen IV) | %B/B0 [2]
CCCCCCC(C)(C)c1cc(O)c2c(c1)OC(C)(C)[C@H]1CC=C(CO)C[C@H]21 [HU-211 (Dexanabinol), Dexanabinol] | 103.36% | 96.78% | 93.37% | 92.70%
(+)-CP 55,940 | 103.25% | 97.15% | 91.38% | 95.12%
COc1ccc(CC(=O)c2cn(CCC3CCCCC3)c3ccccc23)cc1 [RCS-8 4-methoxy isomer] | 94.94% | 98.21% | 90.78% | 100.72%
CCCCCn1cc(C(=O)C23CC4CC(CC(C4)C2)C3)c2ccccc21 [JWH 018 adamantyl analog] | 95.94% | 94.48% | 99.02% | 10.97%
CCCCCn1cc(C(=O)c2cccc3ccc(CC)cc23)c2ccccc21 [JWH-210 7-ethylnaphthyl isomer or JWH-234, JWH-210 7-ethylnaphthyl isomer] | 73.11% | 100.55% | 27.07% | 50.90%
CCCCCC(C)n1c(C)c(C(=O)c2cccc3ccccc23)c2ccccc21 (stereo not drawn) [JWH-011] | 62.13% | 57.43% | 99.19% | 97.49%
CCCCCn1c(C)c(C(=O)c2ccc(OC)c3ccccc23)c2ccccc21 [JWH-098] | 77.58% | 82.85% | 44.03% | 59.80%
COc1ccccc1CC(=O)c1cn(CCCCCC(=O)O)c2ccccc12 [JWH 250 N-(5-carboxypentyl) metabolite] | 86.21% | 97.60% | 89.88% | 89.30%
CCCCCCn1cc(C(=O)c2cccc3ccccc23)cc1-c1ccccc1 [JWH-147] | 83.85% | 99.32% | 97.00% | 92.32%
CCCCCn1c(O)c(C(=O)c2cccc3ccccc23)c2ccccc21 [JWH-018 2-hydroxyindole metabolite] | 95.37% | 95.08% | 100.14% | 101.36%
COc1cccc(CC(=O)c2cn(CCC3CCCCC3)c3ccccc23)c1 [RCS-8 3-methoxy isomer] | 93.24% | 93.73% | 89.43% | 83.62%
CCCCCn1cc(C(=O)Cc2ccccc2OC)c2ccccc21 [JWH-250] | 78.94% | 97.23% | 41.08% | 9.40%
CCCCCn1cc(C(=O)c2ccc3ccccc3c2)c2ccccc21 [JWH 018 2'-naphthyl isomer] | 75.90% | 94.98% | 28.13% | 14.94%
CCCCCn1cc(C(=O)c2ccc(CC)c3ccccc23)c2ccccc21 [JWH-210] | 91.18% | 96.62% | 5.53% | 16.87%
CCCCCn1cc(C(=O)c2ccc(CCC)c3ccccc23)c2ccccc21 [JWH-182] | 107.08% | 98.40% | 12.83% | 30.65%
